One data set is described as follows: in vitro. The settings on record: human, liver microsomes.
Data set [1] can be described thus: measured LogP octanol/buffer. The data set is classed as physicochemical. The settings on record: pH 11.
A short description of another data set: thermodynamic solubility. The data set is classed as physicochemical.
Another data set can be described thus: kinetic solubility. The data set is classed as physicochemical. To be noted: pH 7.4, Solubility (kinetic).
A short description of another data set: brain to blood ratio. To be noted: female, CD1, mouse, in vivo, 10 mg/kg.
The target of another data set is hERG (Homo sapiens, UniProt Q12809). Description: CEREP 44 safety screen, [3H] Dofetilide binding. The settings on record: probe [3H] Dofetilide.
Chain of hERG (Q12809 whole entry): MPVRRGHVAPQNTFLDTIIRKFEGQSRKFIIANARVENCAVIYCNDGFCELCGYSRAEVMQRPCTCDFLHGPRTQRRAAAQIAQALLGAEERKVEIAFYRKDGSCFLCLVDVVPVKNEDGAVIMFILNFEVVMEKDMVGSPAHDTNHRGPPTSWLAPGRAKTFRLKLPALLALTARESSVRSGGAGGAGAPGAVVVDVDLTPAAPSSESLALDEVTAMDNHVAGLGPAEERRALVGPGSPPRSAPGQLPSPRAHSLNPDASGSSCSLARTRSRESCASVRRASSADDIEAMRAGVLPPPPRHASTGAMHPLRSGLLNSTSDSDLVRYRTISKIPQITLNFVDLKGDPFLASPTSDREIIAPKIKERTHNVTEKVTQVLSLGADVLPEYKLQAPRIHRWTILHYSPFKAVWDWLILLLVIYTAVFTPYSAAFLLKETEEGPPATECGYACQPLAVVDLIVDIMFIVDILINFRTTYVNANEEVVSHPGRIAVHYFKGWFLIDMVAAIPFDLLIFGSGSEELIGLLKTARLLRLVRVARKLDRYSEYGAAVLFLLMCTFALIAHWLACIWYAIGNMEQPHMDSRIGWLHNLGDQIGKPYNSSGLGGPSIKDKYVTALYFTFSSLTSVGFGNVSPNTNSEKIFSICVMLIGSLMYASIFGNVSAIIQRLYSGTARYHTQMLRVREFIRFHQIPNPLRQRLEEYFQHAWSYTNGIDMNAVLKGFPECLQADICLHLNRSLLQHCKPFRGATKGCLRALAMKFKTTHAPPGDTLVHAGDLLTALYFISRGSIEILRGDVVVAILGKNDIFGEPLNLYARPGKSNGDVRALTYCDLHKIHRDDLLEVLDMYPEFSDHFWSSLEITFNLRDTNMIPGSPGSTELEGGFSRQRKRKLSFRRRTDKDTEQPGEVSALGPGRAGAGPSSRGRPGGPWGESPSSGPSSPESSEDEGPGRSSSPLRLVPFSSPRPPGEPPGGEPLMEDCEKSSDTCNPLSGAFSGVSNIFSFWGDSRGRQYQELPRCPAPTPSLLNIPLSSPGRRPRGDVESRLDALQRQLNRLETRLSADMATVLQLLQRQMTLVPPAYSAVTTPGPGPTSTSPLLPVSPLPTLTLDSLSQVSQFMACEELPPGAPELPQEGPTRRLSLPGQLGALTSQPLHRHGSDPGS
Data set [2] in a line: mouse liver microsome intrinsic clearance. Type of data set: in vitro ADME. To be noted: liver microsomes.

The record followed here is publication PMC6571122 (Journal of medicinal chemistry, 2019).

Usually CLint scaled stands for the capacity of the preparation to metabolise the compound, expressed as a volume cleared per time. Low readings indicate slow turnover, high ones rapid turnover. As usually defined, the logP is a log measure of how a compound divides between an organic and an aqueous phase. The low end stands for lower lipophilicity, the high end for higher lipophilicity. One may read the solubility (thermodynamic) as solubility found after equilibrating the solid with the medium. In general, kinetic solubility refers to solubility judged after dilution from a stock solution rather than from solid. Usually Kp stands for tissue or fluid exposure divided by exposure in the circulation. A word on the inhibition: it is how much of the control response was suppressed. A low value points to little suppression.

Where “and” joins values, the source holds several entries; their conditions need not be identical. Equal entries are not always repeated. Some results are limits rather than exact numbers.

In the data set “in vitro”, `CCc1nc(N)nc(N)c1-c1ccc(Cl)cc1` [Compound 1, Pyrimethamine, reference compound] showed a CLint scaled of under 8.6 mL/min/kg. In data set [1], this compound registered a logP of 2.71.
The compound `Nc1ncc(N2CCN(c3cccc(-c4ccccc4)c3)CC2)c(N)n1` [Compound 2] showed a solubility (thermodynamic) in “thermodynamic solubility” of under 4 µM. Also, the kinetic solubility in the data set “kinetic solubility” was under 4 µM. For the same compound, in the data set “in vitro”, the intrinsic metabolic clearance (CLint scaled) at 1 h, 10 µM was 28.4 mL/min/kg. For the same compound, in data set [1], the logP amounted to 3.38.
`COc1ncc(-c2cccc(N3CCN(c4cnc(N)nc4N)CC3)c2)cn1` [Compound 3, 5-(4-(3-(2-Methoxypyrimidin-5-yl)phenyl)piperazin-1-yl)pyrimidine-2,4-diamine]: in the data set “brain to blood ratio”, the Kp at 0.5 h was 1.7 ± 0.6; the concentration at 0.5 h is 2560 ng/g and 1610 ng/mL. For the same compound, the inhibition at 10 µM on hERG was 60%. Besides, the CLint scaled at 1 h, 10 µM in data set [2] worked out at 56.3 mL/min/kg. The compound further returned a CLint scaled in “in vitro” of under 8.6 mL/min/kg.
In the data set “in vitro”, `Nc1ncc(N2CCN(c3cccc(-c4ccccn4)c3)CC2)c(N)n1` [Compound 22, 5-(4-(3-(pyridin-2-yl)phenyl)piperazin-1-yl)pyrimidine-2,4-diamine] registered a CLint scaled at 1 h, 10 µM of 17.7 mL/min/kg.
The same measure, in the same setting: to `Nc1ncc(N2CCN(c3cccc(-c4ccncc4)c3)CC2)c(N)n1` [Compound 24, 5-(4-(3-(Pyridin-4-yl)phenyl)piperazin-1-yl)pyrimidine-2,4-diamine] belongs 18.7 mL/min/kg.
For `Nc1ncc(N2CCN(c3cccc(-c4ncccn4)c3)CC2)c(N)n1` [Compound 25, 5-(4-(3-(Pyrimidin-2-yl)phenyl)piperazin-1-yl)pyrimidine-2,4-diamine], the CLint scaled in the data set “in vitro” is under 8.6 mL/min/kg.
In data set [2], `Nc1ncc(N2CCN(c3cccc(-c4cncnc4)c3)CC2)c(N)n1` [Compound 26, 5-(4-(3-(Pyrimidin-5-yl)phenyl)piperazin-1-yl)pyrimidine-2,4-diamine] registered a CLint scaled at 1 h, 10 µM of 2700 mL/min/kg. This compound also had a CLint scaled in the data set “in vitro” of under 8.6 mL/min/kg.
Regarding `Nc1ncc(N2CCN(c3cccc(-c4cnccn4)c3)CC2)c(N)n1` [Compound 27, 5-(4-(3-(Pyrazin-2-yl)phenyl)piperazin-1-yl)pyrimidine-2,4-diamine], the CLint scaled in the data set “in vitro” is under 8.6 mL/min/kg.
The same measure, in the same setting: in the case of `Nc1ncc(N2CCN(c3cccc(-c4ccnnc4)c3)CC2)c(N)n1` [Compound 28, 5-(4-(3-(Pyridazin-4-yl)phenyl)piperazin-1-yl)pyrimidine-2,4-diamine] it was under 8.6 mL/min/kg.
`Cc1ncc(-c2cccc(N3CCN(c4cnc(N)nc4N)CC3)c2)cn1` [Compound 29, 5-(4-(3-(2-methylpyrimidin-5-yl)phenyl)piperazin-1-yl)pyrimidine-2,4-diamine]: the intrinsic metabolic clearance (CLint scaled) at 1 h, 10 µM in data set [2] came to 431 mL/min/kg. The CLint scaled in “in vitro” is under 8.6 mL/min/kg.
`Nc1ncc(N2CCN(c3cccc(-c4cnc(C(F)(F)F)nc4)c3)CC2)c(N)n1` [Compound 30, 5-(4-(3-(2-(Trifluoromethyl)pyrimidin-5-yl)phenyl)piperazin-1-yl)pyrimidine-2,4-diamine] displayed an intrinsic clearance (CLint scaled) at 1 h, 10 µM in the data set “in vitro” of 10.5 mL/min/kg.
On the same count and under the same terms, to `Nc1ncc(N2CCN(c3cccc(-c4cnc(C5CC5)nc4)c3)CC2)c(N)n1` [Compound 31, 5-(4-(3-(2-Cyclopropylpyrimidin-5-yl)phenyl)piperazin-1-yl)pyrimidine-2,4-diamine] belongs 17.4 mL/min/kg.
